In patent US9169199B2, “Cycloalkyl guanidine F1F0-ATPase inhibitors and therapeutic uses thereof” (Lycera Corporation, priority 2010, dated 2015):

What was measured:
[1] = system: Ramos cells; assay: Cytotoxicity in Ramos cells; format: cell-based; settings: Homo sapiens, read-out: Ramos cell EC50
Procedure: (§1) Compounds in Example 4 above were tested for activity against F1F0-ATPase by measuring ATP synthesis. In addition, the compounds were assessed for cytotoxicity in Ramos cells. Inhibition of ATP synthesis by the F1F0-ATPase and cytotoxicity in Ramos cells were measured according to the procedures described in K. M. Johnson et al. Chemistry & Biology 2005, 12, 485-496.

[2] = target: T1, F1F0-ATPase (Bos taurus, UniProt P13621); assay: Inhibition of ATP synthesis by the F1F0-ATPase; format: biochemical
T1 construct: from tissue
Procedure: as §1

Structure (SMILES) | IC50 [2] [µM] | EC50 [1] [µM]
N[C@H]1CC[C@H](N/C(=N/C(=O)c2ccc(F)c(F)c2)Nc2cccc(C(F)(F)F)c2)CC1 [Compound 13] | > 10 | < 10
CCOC(=O)N[C@H]1CC[C@H](N/C(=N\C(=O)c2ccc(F)c(F)c2)NC(C)(C)C(F)(F)F)CC1 [Compound 105] | > 10 | > 10
COC(=O)NC1CCC(N/C(=N\C(=O)c2ccc(OC)cc2)Nc2cc(F)cc(Cl)c2)CC1 (stereo not drawn) [Compound 153] | < 10 | < 10
CCOC(=O)N[C@H]1CC[C@H](N/C(=N\C(=O)c2ccc(F)c(F)c2)NCc2ccccc2F)CC1 [Compound 53] | < 10 | < 10
CCOC(=O)N[C@H]1CC[C@@H](N/C(=N\C(=O)c2ccc(F)c(F)c2)Nc2cc(F)cc(Cl)c2)CC1 [Compound 85] | < 10 | < 10
CCOC(=O)NC1CCC(N/C(=N\C(=O)c2ccc(F)c(S(C)(=O)=O)c2)Nc2cc(F)cc(Cl)c2)CC1 (stereo not drawn) [Compound 146] | > 10 | > 10
O=C(/N=C(/Nc1cccc(Cl)c1)N[C@H]1CC[C@H](Nc2ccccn2)CC1)c1ccc(F)c(F)c1 [Compound 88] | < 10 | < 10
O=C(/N=C(/Nc1cccc(Cl)c1)N[C@H]1CC[C@H](O)CC1)c1ccc(F)c(F)c1 [Compound 5] | > 10 | < 10
CCOC(=O)N[C@H]1CC[C@H](N/C(=N\C(=O)c2ccc(F)c(F)c2)NC2CCCC2)CC1 [Compound 109] | > 10 | > 10
CCOC(=O)N[C@H]1CC[C@H](N/C(=N\C(=O)c2ccc(F)c(F)c2)Nc2ccc(F)c(Cl)c2)CC1 [Compound 81] | < 10 | < 10
CC1(N/C(=N/C(=O)c2ccc(C(F)(F)F)cc2)N[C@H]2CC[C@H](Nc3ncccn3)CC2)CCC1 [Compound 113] | < 10 | < 10
CCOC(=O)N[C@H]1CC[C@H](N/C(=N\C(=O)c2ccc(C(F)(F)F)cc2)NC2CCCC2)CC1 [Compound 110] | < 10 | > 10
CCOC(=O)N[C@@H]1CCC[C@@H](N/C(=N\C(=O)c2ccc(F)c(F)c2)Nc2cc(F)cc(Cl)c2)C1 [Compound 126] | < 10 | < 10
O=C(/N=C(/NCc1ccc(F)c(Cl)c1)N[C@H]1CC[C@H](Nc2ncccn2)CC1)c1ccc(F)c(F)c1 [Compound 74] | < 10 | < 10
CC(C)(C)CN/C(=N/C(=O)c1ccc(F)c(F)c1)N[C@H]1CC[C@H](Nc2ncccn2)CC1 [Compound 138] | < 10 | < 10
O=C(/N=C(/NCc1ccc(Cl)c(F)c1)N[C@H]1CC[C@H](O)CC1)c1ccc(F)c(F)c1 [Compound 45] | < 10 | < 10

Structure (SMILES) | IC50 [2] [µM] | EC50 [1] [µM]
O=C(/N=C(/NCc1ccc(F)cc1F)N[C@H]1CC[C@H](O)CC1)c1ccc(F)c(F)c1 [Compound 41] | > 10 | > 10
CCOC(=O)NC1CCC(N/C(=N\C(=O)c2ccc(C)c(F)c2)Nc2cc(F)cc(Cl)c2)CC1 (stereo not drawn) [Compound 160] | < 10 | < 10
O=C(/N=C(/Nc1cc(F)cc(Cl)c1)NC1CCC(NC(=O)c2ccccn2)CC1)c1ccc(F)c(F)c1 (stereo not drawn) [Compound 171] | < 10 | < 10
CC(=O)N[C@H]1CC[C@H](N/C(=N\C(=O)c2ccc(F)c(F)c2)Nc2cc(F)cc(Cl)c2)CC1 [Compound 100] | < 10 | < 10
O=C(/N=C(/NC1CCCC1)N[C@H]1CC[C@H](Nc2ncccn2)CC1)c1ccc(C(F)(F)F)cc1 [Compound 114] | < 10 | < 10
O=C(/N=C(/Nc1cc(F)cc(Cl)c1)NC1CCC(NC(=O)c2ccccc2)CC1)c1ccc(Cl)cc1 (stereo not drawn) [Compound 164] | < 10 | < 10
CCOC(=O)N[C@H]1CC[C@H](N/C(=N\C(=O)c2ccc(F)c(F)c2)NCc2ccc(F)cc2Cl)CC1 [Compound 60] | < 10 | < 10
CCOC(=O)NC1CCC(N/C(=N\C(=O)c2ccc(Cl)cc2)Nc2cc(F)cc(Cl)c2)CC1 (stereo not drawn) [Compound 165] | < 10 | < 10
O=C(/N=C(/NC1CCCC1)N[C@H]1CC[C@H](Nc2ncccn2)CC1)c1ccc(Cl)c(F)c1 [Compound 143] | < 10 | < 10
O=C(/N=C(/NCc1ccc(C(F)(F)F)cc1)N[C@H]1CC[C@H](O)CC1)c1ccc(F)c(F)c1 [Compound 34] | > 10 | < 10
O=C(/N=C(/Nc1cc(F)cc(Cl)c1)N[C@H]1CC[C@@H](C(=O)O)CC1)c1ccc(F)c(F)c1 [Compound 99] | > 10 | > 10
O=C(/N=C(/Nc1cccc(C(F)(F)F)c1)N[C@H]1CC[C@H](Nc2ncccn2)CC1)c1ccc(Cl)cc1 [Compound 119] | < 10 | < 10
O=C(/N=C(/NCc1cc(F)cc(F)c1)N[C@H]1CC[C@H](O)CC1)c1ccc(F)c(F)c1 [Compound 42] | > 10 | > 10
CCOC(=O)N[C@H]1CC[C@H](N/C(=N/C(=O)c2ccc(F)c(F)c2)Nc2cccc(C(F)(F)F)c2)CC1 [Compound 14] | < 10 | < 10
CCOC(=O)N[C@H]1CC[C@H](N/C(=N\C(=O)c2ccc(C(F)(F)F)cc2)Nc2cccc(Cl)c2)CC1 [Compound 18] | < 10 | < 10

Further lines, with some results ahead:

IC50 [2] [µM] | Structure (SMILES) | EC50 [1] [µM]
< 10 | CCOC(=O)NC1CCC(N/C(=N\C(=O)c2ccc(F)c(C)c2)Nc2cc(F)cc(Cl)c2)CC1 (stereo not drawn) [Compound 161] | < 10
> 10 | CCOC(=O)N[C@H]1CC[C@H](N/C(=N\C(=O)c2ccc(F)c(F)c2)NC2CC2)CC1 [Compound 104] | > 10
< 10 | CCOC(=O)N[C@H]1CC[C@H](N/C(=N\C(=O)c2ccc(C(F)(F)F)cc2)NC(C)(C)C)CC1 [Compound 111] | > 10
> 10 | CS(=O)(=O)N[C@H]1CC[C@H](N/C(=N/C(=O)c2ccc(F)c(F)c2)Nc2cccc(Cl)c2)CC1 [Compound 97] | < 10
< 10 | O=C(/N=C(/Nc1cccc(Cl)c1F)N[C@H]1CC[C@H](O)CC1)c1ccc(C(F)(F)F)cc1 [Compound 69] | < 10
> 10 | O=C(/N=C(/NCc1ccc(Cl)cc1F)N[C@H]1CC[C@H](O)CC1)c1ccc(F)c(F)c1 [Compound 46] | < 10
< 10 | O=C(/N=C(/NCc1ccccc1C(F)(F)F)N[C@H]1CC[C@H](Nc2ncccn2)CC1)c1ccc(F)c(F)c1 [Compound 92] | < 10
< 10 | O=C(/N=C(/Nc1cccc(C(F)(F)F)c1)N[C@H]1CC[C@H](O)CC1)c1cccc(C(F)(F)F)c1 [Compound 30] | < 10
< 10 | CS(=O)(=O)N[C@H]1CC[C@H](N/C(=N/C(=O)c2ccc(F)c(F)c2)Nc2cc(F)cc(Cl)c2)CC1 [Compound 96] | < 10
< 10 | COC(=O)NC1CCC(N/C(=N\C(=O)c2cccc(OC)c2)Nc2cc(F)cc(Cl)c2)CC1 (stereo not drawn) [Compound 156] | < 10
< 10 | CCOC(=O)N[C@H]1CC[C@H](N/C(=N\C(=O)c2ccc(F)c(F)c2)NC2CCCCC2)CC1 [Compound 76] | > 10
< 10 | CCOC(=O)N[C@H]1CC[C@H](N/C(=N\C(=O)c2ccc(F)c(F)c2)NCc2cc(F)ccc2F)CC1 [Compound 55] | < 10
< 10 | O=C(/N=C(/Nc1cc(F)cc(Cl)c1)N[C@H]1CC[C@@H](Nc2ncccn2)CC1)c1ccc(F)c(F)c1 [Compound 120] | < 10
< 10 | CCNC(=O)[C@H]1CC[C@@H](N/C(=N\C(=O)c2ccc(F)c(F)c2)Nc2cc(F)cc(Cl)c2)CC1 [Compound 89] | < 10
> 10 | O=C(/N=C(\NCc1ccccc1C(F)(F)F)N[C@H]1CC[C@H](O)CC1)c1ccc(F)c(F)c1 [Compound 16] | < 10
< 10 | O=C(/N=C(/Nc1cc(F)cc(Cl)c1)N[C@H]1CC[C@H](Nc2cnccn2)CC1)c1ccc(F)c(F)c1 [Compound 117] | < 10
< 10 | COC(=O)N[C@H]1CC[C@H](N/C(=N/C(=O)c2ccc(F)c(F)c2)Nc2cccc(C(F)(F)F)c2)CC1 [Compound 15] | < 10
< 10 | O=C(/N=C(/NCc1ccc(Cl)cc1F)N[C@H]1CC[C@H](Nc2ncccn2)CC1)c1ccc(F)c(F)c1 [Compound 72] | < 10
< 10 | O=C1CCC(N/C(=N\C(=O)c2ccc(C(F)(F)F)cc2)Nc2cc(F)cc(Cl)c2)CC1 [Compound 172] | < 10
< 10 | CC(C)(C)C(=O)N[C@H]1CC[C@H](N/C(=N\C(=O)c2ccc(F)c(F)c2)Nc2cc(F)cc(Cl)c2)CC1 [Compound 102] | < 10
< 10 | Cc1ccc(C(=O)/N=C(/Nc2cc(F)cc(Cl)c2)NC2CCC(NC(=O)c3ccccc3)CC2)cc1 (stereo not drawn) [Compound 148] | < 10
< 10 | CCOC(=O)N[C@H]1CC[C@H](N/C(=N\C(=O)c2ccc(F)c(F)c2)NCc2cccc(F)c2F)CC1 [Compound 57] | < 10
< 10 | O=C(/N=C(/Nc1cc(F)cc(Cl)c1)NC1CCCC(Nc2ncccn2)C1)c1ccc(F)c(F)c1 (stereo not drawn) [Compound 124] | < 10
